Measurements reported in ChEMBL document CHEMBL5385847, “Design, synthesis and biological evaluation of a new class of 7H-pyrrolo[2,3-d]pyrimidine derivatives as Mps1 inhibitors for the treatment of breast cancer” (Eur J Med Chem, 2023).
Active and inactive are the calls of the source. The calls are words filed in the database; no cut-off is given here.

Columns and labels:
4T1-Luc = experiment: Induction of DNA damage in mouse 4T1-Luc cells xenografted in BALB/C mouse assessed as increase in gamma-H2AX level at 30 to 60 mg/kg, po qd treated for 15 days by IHC analysis; type: functional, organism-based; settings: dose 30-60 mg/kg, time 15.0 day
[1] = biological target: Proto-oncogene tyrosine-protein kinase Src (Homo sapiens) (UniProt P12931); experiment: Inhibition of human cSRC at 0.1 uM by KINOMEscan assay relative to control
Proto-oncogene tyrosine-protein kinase Src (Homo sapiens), sequence (P12931 2-536 limits assumed): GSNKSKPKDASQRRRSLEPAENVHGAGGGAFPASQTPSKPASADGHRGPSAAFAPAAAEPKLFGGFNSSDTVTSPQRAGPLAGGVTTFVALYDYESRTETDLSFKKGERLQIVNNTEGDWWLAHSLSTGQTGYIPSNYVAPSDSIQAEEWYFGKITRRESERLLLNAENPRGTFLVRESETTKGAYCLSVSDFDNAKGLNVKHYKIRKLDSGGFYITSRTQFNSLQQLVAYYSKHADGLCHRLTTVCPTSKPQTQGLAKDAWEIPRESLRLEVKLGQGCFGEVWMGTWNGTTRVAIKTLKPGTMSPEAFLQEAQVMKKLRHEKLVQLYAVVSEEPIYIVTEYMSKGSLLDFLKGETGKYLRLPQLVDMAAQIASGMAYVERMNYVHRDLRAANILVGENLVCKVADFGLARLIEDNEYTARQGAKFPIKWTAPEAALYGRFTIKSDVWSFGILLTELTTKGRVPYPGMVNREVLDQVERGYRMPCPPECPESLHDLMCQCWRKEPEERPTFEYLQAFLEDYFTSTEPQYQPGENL

OVCAR-3 = experiment: Antiproliferative activity against human OVCAR-3 cells assessed as inhibition of cell viability by MTT assay; type: functional, cell-based
4T1 = experiment: Induction of cell cycle arrest in 4T1 cells at G2/M phase incubated for 24 hrs by Annexin V/PI staining based flow cytometry; type: functional; settings: Mus musculus, dose <= 5.0 µM
[2] = Antitumor activity against mouse 4T1-Luc cells xenografted in BALB/C mouse assessed as reduction in mean tumor weight at 60 mg/kg, po qd treated for 15 days (reference value: 3.56 g); type: functional; settings: time 15 day
MDA-MB-231 = experiment: Antiproliferative activity against human MDA-MB-231 cells assessed as inhibition of cell viability upto 10 uM incubated for 72 hrs by MTT assay; type: functional, cell-based
GES1 = experiment: Antiproliferative activity against human GES1 cells assessed as inhibition of cell viability by MTT assay; type: toxicity, cell-based
MCF7 = experiment: Induction of cell cycle arrest in human MCF7 cells at G2/M phase assessed as decrease in cyclin B1 level incubated for 24 hrs by Western blot analysis; type: functional, cell-based; settings: dose <= 3.0 µM

**Q.** Which results are given for `CN1CCN(c2ccc(Nc3nc(-n4nc(N)c5ccccc54)c4cc[nH]c4n3)cc2)CC1`?
**A.** Activity (4T1-Luc): Active; inhibition [1]: 52%; IC50 (OVCAR-3): > 3000 nM; Activity (4T1): Dose-Dependent Effect; Activity [2]: 0.97 g; inhibition (MDA-MB-231): Active; Activity (GES1): Non-Toxic; Activity (MCF7): Dose-Dependent Effect
